{
  "source": "patent US9750719B2",
  "about": "“Tetrazole compounds as calcium channel blockers” (CONVERGENCE PHARMACEUTICALS LIMITED, priority 2010, dated 2017)",
  "note": "Structures can show the parent of a compound that is named as a salt.",
  "data": [
    {"target": "T1, human Cav2.2 α (α1B) subunit, along with the human β3 and α2δ1 auxiliary subunits (Homo sapiens, UniProt Q00975)", "T1 construct": "expressed in transfected cells", "T1 sequence (Q00975 whole entry)": "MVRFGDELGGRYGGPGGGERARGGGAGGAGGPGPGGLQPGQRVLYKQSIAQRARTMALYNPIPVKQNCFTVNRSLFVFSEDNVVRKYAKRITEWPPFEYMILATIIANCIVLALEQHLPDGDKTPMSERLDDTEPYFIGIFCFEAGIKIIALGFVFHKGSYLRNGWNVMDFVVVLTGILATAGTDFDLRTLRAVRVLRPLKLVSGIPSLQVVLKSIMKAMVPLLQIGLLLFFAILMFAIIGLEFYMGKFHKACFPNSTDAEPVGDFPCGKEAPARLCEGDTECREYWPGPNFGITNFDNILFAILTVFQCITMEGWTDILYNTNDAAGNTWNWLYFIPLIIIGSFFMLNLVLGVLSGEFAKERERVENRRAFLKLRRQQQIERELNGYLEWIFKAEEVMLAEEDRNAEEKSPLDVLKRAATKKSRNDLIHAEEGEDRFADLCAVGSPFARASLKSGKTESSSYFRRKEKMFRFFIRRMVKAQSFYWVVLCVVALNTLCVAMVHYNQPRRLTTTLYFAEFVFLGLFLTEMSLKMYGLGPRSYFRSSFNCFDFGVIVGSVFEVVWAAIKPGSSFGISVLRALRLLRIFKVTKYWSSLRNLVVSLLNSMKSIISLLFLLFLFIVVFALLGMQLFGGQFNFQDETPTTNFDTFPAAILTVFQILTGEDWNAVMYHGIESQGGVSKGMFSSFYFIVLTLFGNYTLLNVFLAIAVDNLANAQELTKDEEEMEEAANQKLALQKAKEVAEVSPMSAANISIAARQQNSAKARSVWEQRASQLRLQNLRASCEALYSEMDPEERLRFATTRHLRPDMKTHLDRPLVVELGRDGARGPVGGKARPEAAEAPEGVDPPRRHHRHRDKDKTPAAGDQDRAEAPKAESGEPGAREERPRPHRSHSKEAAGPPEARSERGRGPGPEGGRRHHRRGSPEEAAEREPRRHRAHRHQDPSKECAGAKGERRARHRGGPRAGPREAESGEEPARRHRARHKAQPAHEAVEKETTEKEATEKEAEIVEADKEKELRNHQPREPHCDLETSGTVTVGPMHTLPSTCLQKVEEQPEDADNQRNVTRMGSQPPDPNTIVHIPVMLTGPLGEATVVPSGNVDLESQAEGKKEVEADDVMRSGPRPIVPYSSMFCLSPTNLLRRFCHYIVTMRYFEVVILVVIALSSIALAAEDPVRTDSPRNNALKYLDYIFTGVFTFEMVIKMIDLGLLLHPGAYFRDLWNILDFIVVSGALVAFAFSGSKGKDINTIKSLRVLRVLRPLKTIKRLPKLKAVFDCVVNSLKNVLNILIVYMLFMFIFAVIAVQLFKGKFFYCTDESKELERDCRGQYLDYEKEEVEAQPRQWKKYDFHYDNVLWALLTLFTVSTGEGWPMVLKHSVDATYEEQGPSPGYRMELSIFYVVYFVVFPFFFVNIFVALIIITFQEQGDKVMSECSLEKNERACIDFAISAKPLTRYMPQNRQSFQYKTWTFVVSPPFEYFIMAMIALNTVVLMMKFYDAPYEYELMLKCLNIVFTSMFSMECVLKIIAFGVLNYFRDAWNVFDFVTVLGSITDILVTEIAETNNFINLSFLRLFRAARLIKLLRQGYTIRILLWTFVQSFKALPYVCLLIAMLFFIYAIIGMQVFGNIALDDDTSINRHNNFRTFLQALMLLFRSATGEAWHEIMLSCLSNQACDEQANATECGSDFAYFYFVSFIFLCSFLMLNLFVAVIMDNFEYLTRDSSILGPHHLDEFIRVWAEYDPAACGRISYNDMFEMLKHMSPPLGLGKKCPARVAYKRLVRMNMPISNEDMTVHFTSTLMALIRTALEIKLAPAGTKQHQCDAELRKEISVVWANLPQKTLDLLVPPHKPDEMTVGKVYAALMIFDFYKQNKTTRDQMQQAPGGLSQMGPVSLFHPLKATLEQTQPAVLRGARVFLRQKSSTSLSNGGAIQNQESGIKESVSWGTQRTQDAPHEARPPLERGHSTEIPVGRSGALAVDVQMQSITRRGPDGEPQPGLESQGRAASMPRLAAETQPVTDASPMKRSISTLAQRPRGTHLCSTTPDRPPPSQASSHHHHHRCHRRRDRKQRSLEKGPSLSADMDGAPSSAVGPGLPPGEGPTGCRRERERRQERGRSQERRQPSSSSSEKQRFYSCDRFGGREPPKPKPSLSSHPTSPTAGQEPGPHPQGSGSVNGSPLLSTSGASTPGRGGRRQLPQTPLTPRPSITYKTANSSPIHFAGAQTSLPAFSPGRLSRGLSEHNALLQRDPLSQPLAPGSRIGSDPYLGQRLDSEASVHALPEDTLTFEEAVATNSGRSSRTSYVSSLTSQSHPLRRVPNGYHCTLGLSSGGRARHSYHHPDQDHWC", "T1 sequence (P54284 whole entry partner)": "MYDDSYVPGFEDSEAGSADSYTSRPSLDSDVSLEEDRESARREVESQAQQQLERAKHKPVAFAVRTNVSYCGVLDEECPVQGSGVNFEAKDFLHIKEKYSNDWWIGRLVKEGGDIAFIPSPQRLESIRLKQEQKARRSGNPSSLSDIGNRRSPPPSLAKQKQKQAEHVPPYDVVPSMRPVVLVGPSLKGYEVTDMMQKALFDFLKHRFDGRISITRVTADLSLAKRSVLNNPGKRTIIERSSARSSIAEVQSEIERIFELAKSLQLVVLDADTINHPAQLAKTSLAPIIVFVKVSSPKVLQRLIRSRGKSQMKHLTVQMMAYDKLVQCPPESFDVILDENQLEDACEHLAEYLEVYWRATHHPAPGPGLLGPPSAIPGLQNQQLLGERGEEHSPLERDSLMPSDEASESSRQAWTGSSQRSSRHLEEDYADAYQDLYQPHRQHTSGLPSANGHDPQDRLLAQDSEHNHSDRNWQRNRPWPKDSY", "T1 sequence (P54289 25-946 partner limits assumed)": "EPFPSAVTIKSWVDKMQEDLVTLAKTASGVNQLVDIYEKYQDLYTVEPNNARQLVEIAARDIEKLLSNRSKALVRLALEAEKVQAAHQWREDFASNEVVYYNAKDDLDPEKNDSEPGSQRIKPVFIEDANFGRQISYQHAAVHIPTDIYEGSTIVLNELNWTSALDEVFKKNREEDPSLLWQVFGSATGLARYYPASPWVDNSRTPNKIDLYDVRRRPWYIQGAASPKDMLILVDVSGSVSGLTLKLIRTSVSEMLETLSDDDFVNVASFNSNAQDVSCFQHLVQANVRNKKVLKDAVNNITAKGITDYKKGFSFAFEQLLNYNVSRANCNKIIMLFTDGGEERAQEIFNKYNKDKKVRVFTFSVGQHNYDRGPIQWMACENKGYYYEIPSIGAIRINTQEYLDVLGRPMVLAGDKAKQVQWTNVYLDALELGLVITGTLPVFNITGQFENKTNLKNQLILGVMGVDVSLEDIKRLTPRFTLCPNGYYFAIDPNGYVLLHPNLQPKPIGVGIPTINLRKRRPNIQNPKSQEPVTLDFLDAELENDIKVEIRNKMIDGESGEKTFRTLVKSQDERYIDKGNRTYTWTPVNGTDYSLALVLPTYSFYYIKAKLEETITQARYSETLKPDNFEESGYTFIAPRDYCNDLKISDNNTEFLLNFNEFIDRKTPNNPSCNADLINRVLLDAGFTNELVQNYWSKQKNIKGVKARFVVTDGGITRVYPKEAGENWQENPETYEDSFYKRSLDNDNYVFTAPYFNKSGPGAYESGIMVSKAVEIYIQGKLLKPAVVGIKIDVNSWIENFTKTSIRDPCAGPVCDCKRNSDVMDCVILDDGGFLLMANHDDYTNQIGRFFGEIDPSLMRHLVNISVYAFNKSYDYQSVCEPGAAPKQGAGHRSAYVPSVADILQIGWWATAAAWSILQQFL", "T1 sequence (P54289 947-1103 partner limits assumed)": "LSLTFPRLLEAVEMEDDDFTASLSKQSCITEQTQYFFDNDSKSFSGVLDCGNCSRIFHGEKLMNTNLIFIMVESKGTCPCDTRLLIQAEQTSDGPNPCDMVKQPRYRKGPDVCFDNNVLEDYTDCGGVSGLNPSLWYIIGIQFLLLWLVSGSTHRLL", "experiment": "hCav2.2 assay, IonWorks planar array electrophysiology in stable HEK293 cell line", "format": "cell-based", "settings": "inhibition by 50% of current elicited by the 1st depolarising pulse; HEK293 cells; read-out: tonic pIC50 (converted)", "protocol": "Compounds as defined in the first or second aspect may be tested for in vitro biological activity in the hCav2.2 assay in accordance with the following studies:\nStable cell lines expressing the human Cav2.2 α (α1B) subunit, along with the human β3 and α2δ1 auxiliary subunits were created following sequential transfection and selection of human embryonic kidney (HEK293) cells. HEK293 cells were cultured in Dulbecco's modified Eagles media/F12 media (Invitrogen, Cat #041-95750V) containing 10% fetal bovine serum, with added L-glutamine (2 mM; Invitrogen, Cat #25030-024) and non-essential amino acids (5%; Invitrogen, Cat #11140-035). Initially HEK293 cells were transfected with two plasmid vectors for expression of the hCav2.2 α subunit (pCIN5-hCav2.2 which carries a neomycin resistance marker) and the hCav β3 subunit (pCIH-hCav β3 which carries a hygromycin resistance marker). Clonal cell lines were isolated following selection in media supplemented with 0.4 mg ml^−1 Geneticin G418 (Invitrogen, Cat #10131-027) and 0.1 mg ml^−1 hygromycin (Invitrogen, Cat #10687-010). These clonal cell lines were assessed for Cav2.2 α/β3-mediated current expression using the IonWorks planar array electrophysiology technology (described below). A clonal line was identified that gave a reasonable level of functional Cav2.2 α/β3 current expression. This cell line was transfected with a plasmid vector for expression of the human α2δ1 subunit (pCIP-α2δ1 which carries a puromycin resistance marker) and clonal cell lines isolated following selection in media containing 0.62 μg ml^−1 puromycin (Sigma, Cat #P-7255), in addition to 0.4 mg ml^−1 Geneticin G418 and 0.1 mg ml^−1 hygromycin. Several cell lines were identified that gave robust levels of Cav2.2 α/β3/α2δ1-mediated current expression and one of these was selected for compound profiling. Expression of all three subunits within this cell line was continuously maintained by the inclusion of G418 (0.4 mg ml^−1), hygromycin (0.1 mg ml^−1) and puromycin (0.62 μg ml^−1). Cells were maintained at 37° C. in a humidified environment containing 5% CO2 in air. Cells were liberated from the T175 culture flasks for passage and harvesting using TrpLE (Invitrogen, Cat #12604-013).\nCells were grown to 30-60% confluence in T175 flasks and maintained at 30° C. for 24 hrs prior to recording. Cells were lifted by removing the growth media, washing with Ca^2+ free PBS (Invitrogen, Cat #14190-094) and incubating with 3 ml of warmed (37° C.) TrpLE (Invitrogen, Cat #12604-013) for 6 minutes. Lifted cells were suspended in 10 ml of extracellular buffer. Cell suspension was then placed into a 15 ml tube and centrifuged for 2 minutes at 700 rpm. After centrifugation, the supernatant was removed and the cell pellet was resuspended in 4.5 ml of extracellular solution.\nCurrents were recorded at room temperature (21-23° C.) using the IonWorks planar array electrophysiology technology (Molecular Devices Corp.). Stimulation protocols and data acquisition were carried out using a microcomputer (Dell Pentium 4). In order to determine planar electrode hole resistances (Rp), a 10 mV, 160 ms potential difference was applied across each hole. These measurements were performed before cell addition. After cell addition a seal test was performed prior to antibiotic (amphotericin) circulation to achieve intracellular access. Leak subtraction was conducted in all experiments by applying a 160 ms hyperpolarizing (10 mV) prepulse 200 ms before the test pulses to measure leak conductance. Test pulses stepping from the holding potential (VH) of −90 mV to +10 mV were applied for 20 ms and repeated 10 times at a frequency of 10 Hz. In all experiments, the test pulse protocol was performed in the absence (pre-read) and presence (post-read) of a compound. Pre- and post-reads were separated by a compound addition followed by a 3-3.5 min incubation. […]", "units": {"IC50": "µM"}, "values": [
      {"smiles": "O=S1(=O)CCC2CN(Cc3nnnn3-c3ccc(C(F)(F)F)cc3)CCN21", "note": "(centres unmarked) [Compound 78, 5-({1-[4-(Trifluoromethyl)phenyl]-1H-tetrazol-5-yl}methyl)hexahydro-2H-isothiazole[2,3-a]pyrazine 1,1-dioxide]", "IC50": "≤ 31.6"},
      {"smiles": "O=S1(=O)CCC2CN(Cc3nnnn3-c3cccc(C(F)(F)F)c3)CCN21", "note": "(centres unmarked) [Compound 79, 5-({1-[3-(Trifluoromethyl)phenyl]-1H-tetrazol-5-yl}methyl)hexahydro-2H-isothiazolo[2,3-a]pyrazine 1,1-dioxide]", "IC50": "≤ 31.6"},
      {"smiles": "C[C@@H]1C(=O)N(C)CCN1Cc1nnnn1-c1ccc(C(F)(F)F)cc1", "note": "[Compound 89, (3R)-1,3-Dimethyl-4-({1-[4-(trifluoromethyl)phenyl]-1H-tetrazol-5-yl}methyl)-2-piperazinone[]]", "IC50": "≤ 10"},
      {"smiles": "CC(C)N1CCN(Cc2nnnn2-c2ccc(C(F)(F)F)cc2)[C@H](C)C1=O", "note": "[Compound 90, (3R)-3-Methyl-1-(1-methylethyl)-4-({1-[4-(trifluoromethyl)phenyl]-1H-tetrazol-5-yl}methyl)-2-piperazinone]", "IC50": "≤ 10"},
      {"smiles": "CCN1CCN(Cc2nnnn2-c2cccc(C(F)(F)F)c2)[C@H](C)C1", "note": "[Compound 92, (2R)-4-Ethyl-2-methyl,-1-({1-[3-(trifluoromethyl)phenyl]-1H-tetrazol-5-yl}methyl)piperazine hydrochloride]", "IC50": "≤ 31.6"},
      {"smiles": "CC(C)N1CCN(Cc2nnnn2-c2cccc(C(F)(F)F)c2)[C@H](C)C1", "note": "[Compound 94, (2R)-2-Methyl-4-(1-methylethyl)-1-({1-[3-(trifluoromethyl)phenyl]-1H-tetrazol-5-yl}methyl)piperazine hydrochloride]", "IC50": "≤ 31.6"},
      {"smiles": "CC(C)N1CCN(Cc2nnnn2-c2ccc(C(F)(F)F)cc2)CC1", "note": "[Compound 96, 1-(1-Methylethyl)-4-({1-[4-(trifluoromethyl)phenyl]-1H-tetrazol-5-yl}methyl)piperazine hydrochloride]", "IC50": "≤ 31.6"},
      {"smiles": "CN1C[C@@H]2C[C@H]1CN2Cc1nnnn1-c1ccc(C(F)(F)F)cc1", "note": "[Compound 98, (1S,4S)-2-Methyl-5-({1-[4-(trifluoromethyl)phenyl]-1H-tetrazol-5-yl}methyl)-2,5-diazabicyclo[2.2.1]heptane hydrochloride]", "IC50": "≤ 31.6"},
      {"smiles": "N#Cc1ccc(-n2nnnc2CN2CCNCC2)cc1C(F)(F)F", "note": "[Compound 101, 4-[5-(1-piperazinylmethyl)-1H-tetrazol-1-yl]-2-(trifluoromethyl)benzonitrile]", "IC50": "≤ 10"},
      {"smiles": "CC(=O)N1CCN(Cc2nnnn2-c2ccc(C#N)c(C(F)(F)F)c2)CC1", "note": "[Compound 102, 4-{5-[(4-acetyl-1-piperazinyl)methyl]-1H-tetrazol-1-yl}-2-(trifluoromethyl)benzonitrile]", "IC50": "≤ 3.16"},
      {"smiles": "N#Cc1ccc(-n2nnnc2CN2[C@@H]3CC[C@H]2COC3)cc1C(F)(F)F", "note": "[Compound 103, 4-[5-(3-oxa-8-azabicyclo[3.2.1]oct-8-ylmethyl)-1H-tetrazol-1-yl]-2-(trifluoromethyl)benzonitrile hydrochloride]", "IC50": "≤ 10"},
      {"smiles": "CCCS(=O)(=O)N1CCN(Cc2nnnn2-c2ccc(C#N)c(C(F)(F)F)c2)CC1", "note": "[Compound 106, 4-(5-{[4-(Propylsulfonyl)-1-piperazinyl]methyl}-1H-tetrazol-1-yl)-2-(trifluoromethyl)benzonitrile]", "IC50": "≤ 3.16"},
      {"smiles": "C[C@@H]1CN(S(C)(=O)=O)C[C@H](C)N1Cc1nnnn1-c1ccc(C#N)c(C(F)(F)F)c1", "note": "[Compound 107, 4-(5-{[cis-2,6-Dimethyl-4-(methylsulfonyl)-1-piperazinyl]methyl}-1H-tetrazol-1-yl)-2-(trifluoromethyl)benzonitrile]", "IC50": "≤ 3.16"},
      {"smiles": "FC(F)(F)c1cc(-n2nnnc2CN2C[C@@H]3C[C@H]2CO3)ccc1Cl", "note": "[Compound 110, (1S,4S)-5-({1-[4-chloro-3-(trifluoromethyl)phenyl]-1H-tetrazol-5-yl}methyl)-2-oxa-5-azabicyclo[2.2.1]heptane hydrochloride]", "IC50": "≤ 10"},
      {"smiles": "FC(F)(F)c1cc(-n2nnnc2CN2CCOCC2)ccc1Cl", "note": "[Compound 111, 4-({1-[4-chloro-3-(trifluoromethyl)phenyl]-1H-tetrazol-5-yl}methyl)morpholine]", "IC50": "≤ 3.16"},
      {"smiles": "CCS(=O)(=O)N1CCN(Cc2nnnn2-c2ccc(C#N)cc2)CC1", "note": "[Compound 118, 4-(5-{[4-(ethylsulfonyl)-1-piperazinyl]methyl}-1H-tetrazol-1-yl)benzonitrile]", "IC50": "≤ 31.6"},
      {"smiles": "CCS(=O)(=O)N1CCN(Cc2nnnn2-c2ccc(C#N)c(C(F)(F)F)c2)CC1", "note": "[Compound 121, 4-(5-{[4-(ethylsulfonyl)-1-piperazinyl]methyl}-1H-tetrazol-1-yl)-2-(trifluoromethyl)benzonitrile]", "IC50": "≤ 3.16"},
      {"smiles": "CC(C)S(=O)(=O)N1CCN(Cc2nnnn2-c2ccc(C#N)c(C(F)(F)F)c2)CC1", "note": "[Compound 122, 4-[5-({4-[(1-methylethyl)sulfonyl]-1-piperazinyl}methyl)-1H-tetrazol-1-yl]-2-(trifluoromethyl)benzonitrile]", "IC50": "≤ 3.16"},
      {"smiles": "FS(F)(F)(F)(F)c1ccc(-n2nnnc2CN2C[C@@H]3C[C@H]2CO3)cc1", "note": "[Compound 127, (1S,4S)-5-({1-[4-(pentafluoro-λ^6-sulfanyl)phenyl]-1H-tetrazol-5-yl}methyl)-2-oxa-5-azabicyclo[2.2.1]heptane]", "IC50": "≤ 31.6"},
      {"smiles": "Cc1c(-n2nnnc2CN2C[C@@H]3C[C@H]2CO3)ccc(C#N)c1C(F)(F)F", "note": "[Compound 129, 3-methyl-4-{5-[(1S,4S)-2-oxa-5-azabicyclo[2.2.1]hept-5-ylmethyl]-1H-tetrazol-1-yl}-2-(trifluoromethyl)bbenzonitrile hydrochloride]", "IC50": "≤ 31.6"},
      {"smiles": "CCC(=O)N1CCN(Cc2nnnn2-c2ccc(C#N)c(C(F)(F)F)c2)CC1", "note": "[Compound 145, 4-{5-[(4-propanoyl-1-piperazinyl)methyl]-1H-tetrazol-1-yl}-2-(trifluoromethyl)benzonitrile]", "IC50": "≤ 3.16"},
      {"smiles": "CC(C)C(=O)N1CCN(Cc2nnnn2-c2ccc(C#N)c(C(F)(F)F)c2)CC1", "note": "[Compound 146, 4-(5-{[4-(2-methylpropanoyl)-1-piperazinyl]methyl}-1H-tetrazol-1-yl)-2-(trifluoromethyl)benzonitrile]", "IC50": "≤ 3.16"},
      {"smiles": "CC(C)N1CCC2(CCN(Cc3nnnn3-c3ccc(C#N)c(C(F)(F)F)c3)CC2)C1", "note": "[Compound 147, 4-(5-{[2-(1-methylethyl)-2,8-diazaspiro[4.5]dec-8-yl]methyl}-1H-tetrazol-1-yl)-2-(trifluoromethyl)benzonitrile dihydrochloride]", "IC50": "≤ 3.16"}
    ]}
  ]
}
